From the CheMixHub viscosity set

Assay: xn = mol fraction of the nth substance listed

CC#N + CCO
viscosity [mPa·s]
Conditions | 293.15 K | 298.15 K | 303.15 K | 308.15 K | 313.15 K
101 kPa, x1 = 0.0898 | – | 0.87 | 0.736 | 0.632 | –
101 kPa, x1 = 0.187 | – | 0.71 | 0.606 | 0.523 | –
101 kPa, x1 = 0.2973 | – | 0.594 | 0.518 | 0.454 | –
101 kPa, x1 = 0.396 | – | 0.517 | 0.455 | 0.405 | –
101 kPa, x1 = 0.4843 | – | 0.463 | 0.409 | 0.364 | –
101 kPa, x1 = 0.5987 | – | 0.416 | 0.37 | 0.334 | –
101 kPa, x1 = 0.7114 | – | 0.376 | 0.342 | 0.309 | –
101 kPa, x1 = 0.8072 | – | 0.357 | 0.325 | 0.298 | –
101 kPa, x1 = 0.9139 | – | 0.345 | 0.314 | 0.29 | –
101.3 kPa, x1 = 0.1107 | – | 0.85 | 0.779 | 0.715 | 0.656
101.3 kPa, x1 = 0.2192 | – | 0.693 | 0.642 | 0.589 | 0.542
101.3 kPa, x1 = 0.3249 | – | 0.584 | 0.545 | 0.499 | 0.467
101.3 kPa, x1 = 0.4279 | – | 0.506 | 0.473 | 0.444 | 0.417
101.3 kPa, x1 = 0.5288 | – | 0.458 | 0.428 | 0.405 | 0.38
101.3 kPa, x1 = 0.6267 | – | 0.414 | 0.391 | 0.377 | 0.352
101.3 kPa, x1 = 0.7236 | – | 0.392 | 0.366 | 0.347 | 0.331
101.3 kPa, x1 = 0.8179 | – | 0.37 | 0.349 | 0.333 | 0.316
101.3 kPa, x1 = 0.9099 | – | 0.354 | 0.336 | 0.317 | 0.301
101.33 kPa, x1 = 0.04 | 1.12 | – | – | – | –
101.33 kPa, x1 = 0.1 | 0.9979 | – | – | – | –
101.33 kPa, x1 = 0.12 | 0.939 | – | – | – | –
101.33 kPa, x1 = 0.17 | 0.9065 | – | – | – | –
101.33 kPa, x1 = 0.28 | 0.7033 | – | – | – | –
101.33 kPa, x1 = 0.33 | 0.6415 | – | – | – | –
101.33 kPa, x1 = 0.43 | 0.5585 | – | – | – | –
101.33 kPa, x1 = 0.67 | 0.4418 | – | – | – | –
101.33 kPa, x1 = 0.83 | 0.4001 | – | – | – | –

BrC(Br)Br + CO
318 K, 101.33 kPa
Conditions | viscosity [mPa·s]
x1 = 0.163 | 0.6935
x1 = 0.3122 | 0.8844
x1 = 0.4563 | 1.043
x1 = 0.7234 | 1.261
x1 = 0.8987 | 1.383

CCCCCCCCO + CCCCCO
101.33 kPa
Conditions | viscosity [mPa·s]
293.15 K, x2 = 0.1991 | 7.947
293.15 K, x2 = 0.3363 | 7.158
293.15 K, x2 = 0.4792 | 6.397
293.15 K, x2 = 0.6294 | 5.561
293.15 K, x2 = 0.7214 | 5.182
293.15 K, x2 = 0.911 | 4.341
298.15 K, x2 = 0.0849 | 7.229
298.15 K, x2 = 0.2664 | 6.385
298.15 K, x2 = 0.3696 | 5.903
298.15 K, x2 = 0.6046 | 4.921
298.15 K, x2 = 0.708 | 4.524
298.15 K, x2 = 0.8575 | 3.97

BrC(Br)Br + CC(C)CO
viscosity [mPa·s], 101.3 kPa
Conditions | x1 = 0.099 | x1 = 0.197 | x1 = 0.3 | x1 = 0.395 | x1 = 0.498 | x1 = 0.597 | x1 = 0.701 | x1 = 0.798 | x1 = 0.901
298.15 K | 2.98 | 2.604 | 2.336 | 2.134 | 2.017 | 1.905 | 1.849 | 1.815 | 1.823
303.15 K | 2.544 | 2.272 | 2.045 | 1.901 | 1.808 | 1.732 | 1.693 | 1.679 | 1.699
308.15 K | 2.193 | 2.011 | 1.803 | 1.687 | 1.633 | 1.579 | 1.559 | 1.558 | 1.591

BrC(Br)Br + ClCCCCCl
viscosity [mPa·s], 101 kPa
Conditions | x1 = 0.0978 | x1 = 0.197 | x1 = 0.2974 | x1 = 0.3963 | x1 = 0.496 | x1 = 0.5975 | x1 = 0.6963 | x1 = 0.7994 | x1 = 0.8972
298.15 K | 1.382 | 1.455 | 1.538 | 1.607 | 1.677 | 1.748 | 1.813 | 1.868 | 1.924
303.15 K | 1.278 | 1.346 | 1.423 | 1.489 | 1.556 | 1.624 | 1.686 | 1.743 | 1.803
308.15 K | 1.184 | 1.247 | 1.32 | 1.381 | 1.446 | 1.507 | 1.573 | 1.625 | 1.687
313.15 K | 1.099 | 1.158 | 1.232 | 1.281 | 1.34 | 1.401 | 1.462 | 1.52 | 1.578

CC(=O)c1ccc(Cl)cc1 + CC#N
308.15 K, 101 kPa
Conditions | viscosity [mPa·s]
x1 = 0.0513 | 0.3576
x1 = 0.092 | 0.4065
x1 = 0.1488 | 0.479
x1 = 0.2128 | 0.5704
x1 = 0.2863 | 0.6742
x1 = 0.3792 | 0.8301
x1 = 0.4876 | 1.039
x1 = 0.6196 | 1.31
x1 = 0.7847 | 1.716
x1 = 0.865 | 1.96
x1 = 0.9536 | 2.224

C=Cc1ccccc1 + CN(C)C=O
viscosity [mPa·s], 101.33 kPa
Conditions | x1 = 0.109 | x1 = 0.2013 | x1 = 0.2959 | x1 = 0.3998 | x1 = 0.5052 | x1 = 0.6012 | x1 = 0.6979 | x1 = 0.8049 | x1 = 0.8976
298.15 K | 0.831 | 0.845 | 0.854 | 0.858 | 0.86 | 0.856 | 0.847 | 0.825 | 0.794
303.15 K | 0.78 | 0.79 | 0.801 | 0.804 | 0.802 | 0.798 | 0.79 | 0.768 | 0.735
308.15 K | 0.732 | 0.742 | 0.749 | 0.75 | 0.749 | 0.746 | 0.739 | 0.717 | 0.685

C=Cc1ccccc1 + CCCCCCCCCC
viscosity [mPa·s], 101.33 kPa
Conditions | x1 = 0.1007 | x1 = 0.2052 | x1 = 0.2991 | x1 = 0.4114 | x1 = 0.4959 | x1 = 0.6135 | x1 = 0.6992 | x1 = 0.8062 | x1 = 0.8984
298.15 K | 0.803 | 0.773 | 0.75 | 0.724 | 0.706 | 0.688 | 0.68 | 0.677 | 0.693
303.15 K | 0.749 | 0.722 | 0.702 | 0.678 | 0.663 | 0.646 | 0.638 | 0.633 | 0.644
308.15 K | 0.7 | 0.678 | 0.658 | 0.638 | 0.624 | 0.607 | 0.602 | 0.6 | 0.611
